Laboratory results from US20100255104A1, “PHARMACEUTICAL FORMULATION OF TAXANE” (ERIOCHEM S.A., priority 2007, published 2010).

Experiments:
[1] = Laboratory solubility tests of docetaxel API versus lyophilized solid composition in tensoactives; format: physicochemical; conditions: for solubility in a tensoactive aqueous solution: direct dissolution
[2] = Chemical stability test of solubilized docetaxel by HPLC; format: physicochemical; conditions: vial of Example 3, solubilizing composition with 15% DMA, 25° C., 60% relative humidity
Protocol: The vial of Example 3 containing a solubilizing composition of 15% DMA was subjected to a chemical stability test described as follows:
Immediately after solubilizing docetaxel and at periods of 2, 4, 6 and 8 hours starting from that moment, a sample is taken from the vial using a disposable syringe (1 ml, Darling) with a disposable hypodermic needle (50×8-21Gx2, Neojet). The volume of the sample was 0.5 ml and each sample was weighed and diluted up to a final volume of 10 ml with the mobile phase to be used in HPLC. Reconstituted material remained in a chamber at 25° C. and 60% room relative humidity during the test time.
Mobile phase: Filtered and deaerated mixture of acetonitrile, Methanol, water (26:32:42 v:v:v). The column used was Beckman stainless steel (Ultrasphere ODS of 4.6 mm×25 cm, 5 μm, part N° 235329). The guard column used was Beckman (Ultrasphere ODS of 4.6 mm×4.5 cm, 5 μm, part N° 243533). The detector used was UV type, Waters 2487 dual and the measure was done at wave length 232 nm. The volume injected was 20 μl, using a Waters 717 plus autosampler, and samples were maintained in the autosampler at 4° C. after preparation until the moment of being injected. Retention time for docetaxel is approximately 25 min and run time is 90 min. Flow rate remained 1.0 ml/min using a Waters 1525 binary pump for HPLC. The software used was Breeze version 3.30. The column temperature was 40° C. A standard for the assessment and determination of related substances was prepared, weighing exactly 20 mg of standard docetaxel in a volumetric flask of 50 ml; it was dissolved with 5 ml ethanol and was diluted up to final volume with mobile phase. A solution of impurity 10-deacethilbaccatine III was prepared in order to detect and quantify it in a chromatogram, weighing 5 mg of 10-deacethilbaccatine III, dissolving with 1 ml ethanol and diluting up to final volume, 10 ml, with mobile phase in a volumetric flask. In the same way, a solution of impurity 7-epi-docetaxel was prepared, weighing 10 mg of docetaxel, 10 ml of NaOH 0.005 N were added. It was left to stand for 2 hours; 2.5 ml of ethanol were added and it was diluted to final volume, 25 ml with mobile phase.

Row | Compound | solubility in pure polysorbate 80 [1] | solubility in a tensoactive aqueous solution [1] | Docetaxel concentration (percentage of area ratio) ([2]; time 0 hours) | Docetaxel concentration (percentage of area ratio) ([2]; time 2 hours) | Docetaxel concentration (percentage of area ratio) ([2]; time 4 hours) | Docetaxel concentration (percentage of area ratio) ([2]; time 6 hours) | Docetaxel concentration (percentage of area ratio) ([2]; time 8 hours)
1 | CC(=O)O[C@@]12CO[C@@H]1C[C@H](O)[C@@]1(C)C(=O)[C@H](O)C3=C(C)[C@@H](OC(=O)[C@H](O)[C@@H](NC(=O)OC(C)(C)C)c4ccccc4)C[C@@](O)([C@@H](OC(=O)c4ccccc4)[C@H]21)C3(C)C [anhydrous docetaxel] | very difficultly | cannot be dissolved directly |  |  |  |  | 
2 | CC(=O)O[C@@]12CO[C@@H]1C[C@H](O)[C@@]1(C)C(=O)[C@H](O)C3=C(C)[C@@H](OC(=O)[C@H](O)[C@@H](NC(=O)OC(C)(C)C)c4ccccc4)C[C@@](O)([C@@H](OC(=O)c4ccccc4)[C@H]21)C3(C)C [Docetaxel] |  |  | 99.61 percentage of area ratio | 99.59 percentage of area ratio | 99.57 percentage of area ratio | 99.57 percentage of area ratio | 99.54 percentage of area ratio
3 | CC(=O)O[C@@]12CO[C@@H]1C[C@H](O)[C@@]1(C)C(=O)[C@H](O)C3=C(C)[C@@H](OC(=O)[C@H](O)[C@@H](NC(=O)OC(C)(C)C)c4ccccc4)C[C@@](O)([C@@H](OC(=O)c4ccccc4)[C@H]21)C3(C)C.O.O.O [trihydrate docetaxel] | very difficultly | cannot be dissolved directly |  |  |  |  | 
